# Tests used:
# [1] = test system: human glioblastoma (U87) cells; assay: Tumor growth of stably transfected U87 cells in athymic nude mice; assay type: in vivo; details: 10^7 transfected U87 cells s.c. in athymic nude mice
# Protocol: Transfections and stable expression in the human glioblastoma cell line U87 were performed using a liposomal reagent (Lipofectin™) (Gibco/BRL; Gaithersburg, Md.), as described. Cells were cultured in 162 cm^2 flasks in complete DMEM. On the day of injection, cells were removed by trypsinization, rinsed twice with Hanks balanced salt solution (HBSS, without phenol red; Gibco/BRL), and resuspended in 300 μL HBSS. Cells (10^7) from exponentially growing cultures of stable U87 transfectants were injected subcutaneously between the scapulae of 9-week-old athymic nude mice (Harlan Sprague-Dawley, nu/nu) using a 1 cc tuberculin syringe equipped with a 23-gauge needle. Two-dimensional measurements of tumors were obtained with vernier calipers.
# [2] = PDGF-BB expressed in Saccharomyces cerevisiae, Craig et al. (1992); cited from earlier work
# [3] = Heparin-agarose in vitro batch binding assay; details: 200 mM NaCl, 40 mM Hepes pH 7.4; 3 μg protein; bound fraction by ELISA
# Protocol: Mixtures containing 300 μL of a 50:50 slurry of heparin-agarose in 200 mM NaCl, 40 mM Hepes, pH 7.4 were incubated with 3 μg of PDGF-BB proteins for 15 min at 23° C. Supernatants were obtained by microcentrifugation and collected with a 23 G needle. Pellets were washed with 300 μL of buffer, which was combined with the first supernatant ("unbound" PDGF). Pellets were then washed twice with 150 μL of buffer containing 1 M NaCl, and supernatants were pooled (high salt wash fraction, or "bound" PDGF). PDGF-BB content of bound and unbound fractions were determined by ELISA.
# NR6 cells = assay: Mitogenesis, [3H]thymidine incorporation in NR6 cells; assay type: cell-based; details: NR6 cells (primarily α-receptors), ALLFIT fit
# Protocol: (§1) Radioreceptor assays were conducted in A204 and rat mesangial cells (RMC, R52 line) as described previously using 20,000 cpm of [^125 I]PDGF-BB (1200 Ci/mmol; Amersham, Buckinghamshire, England) as radioligand and unlabeled recombinant PDGF-BB proteins as competitor. Mitogenic activities of recombinant PDGF-BB proteins were determined by measuring [^3 H]thymidine incorporation into cells as described.
# PDGF β-receptor [4] = assay: In vitro PDGF receptor autophosphorylation in R52 cells; assay type: cell-based, rat; details: 170 kDa PDGF receptor species
# Protocol: In vitro assays of PDGF receptor autophosphorylation were conducted essentially as described. A204 and R52 cells (obtained from the American Type Culture Collection (ATCC) were grown to near confluence on 100-mm plastic dishes and maintained in low mitogenicity medium for 24 h. Cells were pre-chilled at 4° C. for 60 min and then incubated with PDGF-BB preparations for 10 min at 4° C. Cell lysates were incubated with either anti-PDGFRα or anti-PDGFRβ IgG (Santa Cruz Biotechnologies) for 60 min at 4° C., centrifuged for 10 min and incubated in fresh tubes containing protein A-agarose (Sigma) for 60 min at 4° C. Kinase assays were performed in 25 μL kinase buffer (20 mM Tris HCl, 1 mM DTT, 10 mM MnCl2, pH 7.5) and 5 μCi [γ-^32 P] ATP (3000 Ci/mmol) for 10 min at 30° C. Immunoprecipitates were analyzed by SDS-PAGE (6% polyacrylamide).
# PDGF α-receptor [5] = assay: Radioreceptor assay (RRA), competition with [125I]PDGF-BB in A204 cells; assay type: binding; details: A204 cells (α isotype only); [125I]PDGF-BB radioligand; Pichia-expressed protein; ALLFIT fit
# Protocol: as §1
# PDGF β-receptor [6] = assay: Radioreceptor assay (RRA), competition with [125I]PDGF-BB in R52 rat mesangial cells; assay type: binding; details: R52 cells (β isotype); [125I]PDGF-BB radioligand; Pichia-expressed protein; ALLFIT fit
# Protocol: as §1
# PDGF α-receptor [7] = assay: In vitro PDGF receptor autophosphorylation in A204 cells; assay type: cell-based; details: 170 kDa PDGF receptor species
# Protocol: In vitro assays of PDGF receptor autophosphorylation were conducted essentially as described. […] ATP (3000 Ci/mmol) for 10 min at 30° C. Immunoprecipitates were analyzed by SDS-PAGE (6% polyacrylamide).
Substance,effect of overexpression on U87 tumor growth in vivo vs Neo controls (in words) [1],Structure (%) Beta [2],Structure (%) Helix [2],Structure (%) Random [2],"heparin-binding, protein in the bound fraction [3]",Mitogenesis ED50 (NR6 cells),induction of β-receptor autophosphorylation (in words) (PDGF β-receptor [4]),RRA: IC50 α (PDGF α-receptor [5]),RRA: IC50 β (PDGF β-receptor [6]),induction of α-receptor autophosphorylation (in words) (PDGF α-receptor [7])
A-WT-RKK: wild-type PDGF A-chain overexpressed from cDNA in stably transfected U87 cells,not significantly different,–,–,–,–,–,–,–,–,–
"PDGF-BB: wild-type human PDGF-BB expressed in Saccharomyces cerevisiae, CD data as reported by Craig et al. (1992)",–,51.0%,4.0%,45.0%,–,–,–,–,–,–
WT-RKK: human PDGF B-chain (PDGF-BB homodimer) with wild-type loop III residues Arg Lys Lys (RKK),not significantly different,–,–,–,~100%,52 ng/mL,dose-dependent autophosphorylation,9.2 ng/mL,4.0 ng/mL,dose-dependent autophosphorylation

# From patent publication US6194169A, “Enhanced expression of human platelet-derived growth factor in Pichia pastoris” (The University of Kentucky Research Foundation, priority 1998, dated 2001)
